Values after ≈ are worked out from the molar mass of the structure shown.
How the values were obtained:
[1] = tested on: Chenopodium album (CHEAL); assay: Glass-house comparative efficacy test of potassium glyphosate with adjuvants; format: in vivo; details: potassium glyphosate 240 g acid equivalent/ha, 21 days after treatment
Experimental: (§1) Potassium glyphosate was applied at 240 g glyphosate acid equivalent/ha to Chenopodium album (CHEAL), Echinochloa crus-galli (ECHCG) and Sorgham halepense (SORHA) plants grown in the glass-house. All treatments were made up in deionised water and applied using a tracksprayer with a 11002 nozzle at a spray application volume of […]. All treatments were replicated 4 times. After spraying the plants were laid out in a glass-house and maintained at a temperature of 24°C by day and 16°C by night. The Agrimul PG2067 and Synperonic PEL62 adjuvants were used in a proportion 0.2% w/v. The adjuvant 2-ethylhexyl amine 8EO was used at both 0.2%w/v and 0.3%w/v. The adjuvant Sodium dodecyl sulphate was used in a proportion of 0.3%w/v. When applied as binary blends all adjuvants were used in a proportion of 0.1%w/v except Sodium dodecyl sulphate which was applied at 0.2%w/v. A visual assessment of % control, where 0=unaffected and 100=complete kill, was carried out 21 days after treatment.

[2] = tested on: Sorgham halepense (SORHA); assay: as above; format: in vivo; details: potassium glyphosate 240 g acid equivalent/ha, 21 days after treatment
Experimental: as §1

[3] = tested on: Echinochloa crus-galli (ECHCG); assay: as above; format: in vivo; details: potassium glyphosate 240 g acid equivalent/ha, 21 days after treatment
Experimental: as §1

[4] = tested on: Chenopodium album (CHEAL); assay: Field efficacy test of potassium glyphosate with adjuvants; format: in vivo; details: potassium glyphosate + 0.2% adjuvant, mean across 100, 200, 400 and 600 g glyphosate acid/ha, 33 days after application
Text: (§2) Potassium glyphosate, in combination with the adjuvants specified below in Table 3, was applied to Lolium perenne (LOLPE), Avena fatua (AVEFA) and Chenopodium album (CHEAL) drilled as rows in the field, at a spray application volume of […]. Application rates were 100, 200, 400 and 600 g glyphosate acid/ha and each treatment was replicated 3 times. Data (mean of the three replicates and across all rates) is presented for a visual assessment of % control carried out 33 days after application, where 0 = unaffected and 100% = complete kill Table 3.

[5] = tested on: Avena fatua (AVEFA); assay: as above; format: in vivo; details: potassium glyphosate + 0.2% adjuvant, mean across 100, 200, 400 and 600 g glyphosate acid/ha, 33 days after application
Text: as §2

[6] = tested on: Lolium perenne (LOLPE); assay: as above; format: in vivo; details: potassium glyphosate + 0.2% adjuvant, mean across 100, 200, 400 and 600 g glyphosate acid/ha, 33 days after application
Text: as §2

[7] = Dynamic surface tension, maximum bubble pressure method (Lauda MPT-2); format: physicochemical
Experimental: Dynamic surface tension can be measured using the maximum bubble pressure method. Various commercial instruments are available for measuring dynamic surface tension by the maximum bubble pressure method, for example the Lauda MPT-2 maximum bubble pressure instrument. The dynamic surface tension at 40msecs is determined from the maximum pressure in a bubble blown from a capillary inserted into a surfactant solution, for a bubble surface lifetime of 40msecs.
The dynamic surface tension measurements were carried out with a Lauda MPT-2 maximum bubble pressure tensiometer. The dynamic surface tension at 40 msecs was determined from the maximum pressure in a bubble blown from a capillary inserted into a surfactant solution, for a bubble surface lifetime of 40 msecs. The dynamic surface tensions were determined for solutions containing 0.1%, 0.2% or 0.5% by weight of the second adjuvant in deionised water at 20°C. For comparison, the dynamic surface tension of a 0.5% by weight solution of 2-ethylhexyl amine 8EO adjusted to pH4 with dilute hydrochloric acid (to protonate the amine) was also determined at 20°C.

[8] = tested on: Daphnia magna; assay: Daphnia magna immobilisation ecotoxicity test; format: in vivo
Experimental: The following ecotoxicity results were obtained for various alkyl amine alkoxylates using the following test method. First instar Daphnia magna (less than 24 hrs old), obtained from cultures were exposed to a range of concentrations of the test amine ethoxylates in hard blended water (160-180 mg CaCO3 /litre). 10 Daphnia magna were added to each vessel which were then placed at ∼20 degrees C on a 16/8 light/dark day. Organisms were assessed at 24 and 48 hours, the effect observed being immobilisation after gentle agitation. The EC50 values were calculated using a statistical package, the 95% confidence limits are quoted in brackets.
The amine ethoxylates were tested in the presence of potassium glyphosate in order to protonate the amine. […] The remaining adjuvants were tested in the absence of potassium glyphosate. It can be seen that the ecotoxicity of the alkyl amine alkoxylates 3 to 6 falling within the definition of the present invention was very much lower that that for the nearest previously known compounds 1 to 2. It will be appreciated that the higher the EC50 value, the lower the toxicity.

**Q.** What does the source list for 2-ethylhexyl amine 8EO [Number 3]?
**A.** visual assessment of % control CHEAL ([1]; single adjuvant 0.2%): 59%; visual assessment of % control SORHA ([2]; single adjuvant 0.2%): 74%; visual assessment of % control SORHA ([2]; single adjuvant 0.3%): 75%; visual assessment of % control ECHCG ([3]; single adjuvant 0.2%): 63%; visual assessment of % control ECHCG ([3]; single adjuvant 0.3%): 64%; visual assessment of % control CHEAL [4]: 74%; visual assessment of % control AVEFA [5]: 68%; visual assessment of % control LOLPE [6]: 47%; Dynamic Surface Tension at 40 msecs ([7]; 0.5% by weight solution adjusted to pH4 with dilute hydrochloric acid, 20°C): 64 mNm^-1

**Q.** Which “visual assessment of % control SORHA” value ([2]; single adjuvant 0.3%) does the source give for `CCCCCCCCCCCCOS(=O)(=O)[O-].[Na+]` [Number 9, Sodium dodecyl sulphate, reference compound] here?
**A.** 76%

**Q.** And the “visual assessment of % control ECHCG” value ([3]; single adjuvant 0.3%)?
**A.** 78%

**Q.** And the “Dynamic Surface Tension at 40 msecs” value ([7]; 0.2% by weight in deionised water at 20°C)?
**A.** 53 mNm^-1

**Q.** What about the “Dynamic Surface Tension at 40 msecs” value ([7]; 0.5% by weight in deionised water at 20°C) of the same compound?
**A.** 39 mNm^-1

**Q.** Which EC50 ([8]; Daphnia magna, 48 hours, immobilisation, tested in the absence of potassium glyphosate, 95% confidence limits in brackets, read-out: Daphnia toxicity EC50) does the source give for `CCCCCCCCCCCCOS(=O)(=O)O` [Number 9] here?
**A.** 16 µg/mL (≈ 60.1 µM)

**Q.** With `O=C(O)CNCP(=O)([O-])O.[K+]` [Potassium glyphosate, reference compound] as the compound, how does the “visual assessment of % control CHEAL” value ([1]; no adjuvant) read?
**A.** 3%

**Q.** What about the “visual assessment of % control SORHA” value ([2]; no adjuvant) of the same compound?
**A.** 21%

**Q.** And the “visual assessment of % control ECHCG” value ([3]; no adjuvant)?
**A.** 48%

**Q.** What about the “contribution to the daphnia toxicity” value ([8]; potassium glyphosate itself) of the same compound?
**A.** does not make a significant contribution
